Test results as given in patent publication US20070037873A1, “Airway remodeling treatments” (priority 2005, published 2007).

Legend:
[1] = tested on: Human airway smooth muscle (ASM) cells; experiment: Human ASM cell proliferation (MTT) after TNF-α stimulation; format: cell-based; conditions: ajulemic acid 0-30 μmoles, 60 minutes, then 1 ng/ml TNF-α for 48 hours, FIG. 1
Experimental: Human airway smooth muscle (ASM) (also known as human bronchial smooth muscle (HBSM)) cells were obtained cryopreserved from Cambrex Bio Science (Walkersville, Md.) at passage 3. See, Ethier and Madison, Cell Calcium, 32:31-38 (2002) and Zhong et al., Am. J Respir Cell Mol. Biol., 30:118-125 (2004). Cultures were characterized as smooth muscle cells by positive immunostaining for smooth muscle actin and negative for Factor VIII. Cells were seeded and grown in smooth muscle basal medium (SMBM, Cambrex Bio Science) supplemented with 5% fetal bovine serum, 5 μg/ml insulin, 0.5 ng/ml epidermal growth factor, 2 ng/ml fibroblast growth factor, gentamicin, and amphotericin. Cells were maintained at 37° C. in a humidified atmosphere (5% CO2), fed every 48 hours, and passaged when confluent. Shortly after passaging, ajulemic acid (synthesized by Organix, Inc., Woburn, Mass.) was added to growth media to a concentration of 0-30 μmoles. Cells were incubated for 60 minutes, and then stimulated with 1 ng/ml TNF-α for 48 hours. After 48 hours, cell proliferation was evaluated using the Cell Proliferation Kit I (MTT) from Roche Diagnostics (Indianapolis, Ind.), which provides a measure of cell number as a function of optical density.

NF-KB = experiment: EMSA of NF-KB binding in nuclear extracts of FLS cells; format: cell-based, human; conditions: 10 μM ajulemic acid for 1 hour
Description: Human fibroblast-like synovial (FLS) cells were isolated from synovial tissue or synovial fluid of patients with inflammatory arthritis (4 RA, 1 psoriatic arthritis) essentially as described (Stebulis et al., J. Rheumatol. 32:301-06, 2005). Briefly, synovial tissue obtained at the time of joint replacement surgery was minced and plated in tissue culture dishes with growth medium (MEM with 15% FBS, 1% penicillin/streptomycin solution, 1% nonessential amino acids). Synovial fluid was collected in heparinized syringes, then centrifuged at 1200 rpm for 15 min. The cell pellet was resuspended in growth medium, then plated in tissue culture flasks. After 2-4 days, primary cultures were washed with PBS to remove tissue fragments and nonadherent cells. FLS were incubated at 37° C. under 5% CO2 and passaged to 6-well tissue culture plates (split 1:3) when they reached confluence. Passages 2 through 8 were used for experiments.
Experiments were done on FLS rested overnight in low serum medium (MEM/2% FBS). Medium was replaced before beginning the experiments. Cells were treated with 10 μM ajulemic acid for 1 hour then stimulated with 1 ng/ml TNF-α or left unstimulated. Controls were vehicle (0.3% DMSO) treated cells. […] Gels were scanned and analyzed using ADOBE® software for PC.

IK-B = experiment: Western blot of IK-B phosphorylation in TNF-α stimulated FLS cells; format: cell-based, human; conditions: FIG. 3
Experimental: FLS cells were collected from human synovial fluid in heparinized syringes, then centrifuged at 1200 rpm (260 g) for 15 minutes. FLS cells are used herein as models of pulmonary fibroblasts and/or myofibroblasts. The resulting cell pellet was resuspended in 7 ml of growth medium (Dulbecco's Minimal Essential Medium with 15% heat-inactivated fetal bovine serum (FBS), 1% nonessential amino acids, 1% penicillin/streptomycin solution) and plated in 25 ml tissue culture flasks. Cultures were incubated at 37° C., under 5% CO2 for 24 to 48 hours after which medium was aspirated and cultures were washed with PBS to remove nonadherent cells. Growth medium was replaced every 3 to 4 days. After 10 to 14 days, adherent cells were harvested by trypsinization, washed, and transferred to 6-well tissue culture plates in fresh growth medium. FLS cells were passaged (split 1:3) at confluence, generally every 10 to 14 days.
FLS cells at passage 2 through 6 were (i) untreated, (ii) treated with 1-30 μM of ajulemic acid in growth media, (iii) treated with 1 ng/ml of TNF-α in growth media, or (iv) treated with a combination of 1-30 μM of ajulemic acid and 1 ng/ml TNF-α for 10 minutes or 45 minutes. Cells were harvested and washed several times with PBS. Whole cell lysates were prepared in hypotonic HEPES buffer (7.45 g KCl/100 ml H2O; 3.80 g EGTA/100 ml H2O;0.87 g PMSF/500 ml H2O; 1.54 g DTT/10 ml H2O). […]

MMP-1 = MMP-1 mRNA Northern blot in stimulated FLS cells; format: cell-based, human; conditions: FLS treated 60 minutes with AjA, then 10 ng/mL TNFα+1 ng/mL GMCSE for 4 hours; FIG. 4
Experimental: Human fibroblast-like synovial cells (FLS) were obtained from synovial tissue or synovial fluid, and grown to confluence in 6 well tissue culture plates. Cells were treated or not for 60 minutes with AjA, then stimulated with 10 ng/mL TNFα+1 ng/mL GMCSE for 4 hours. MMP-1 mRNA content measured by Northern blot analysis.
Cells were harvested and resuspended in TRIZOL® solution (GIBCO-BRL) to extract total cellular RNA. The RNA was resuspended in diethylpyrocarbonate (DEPC)-treated water. Total RNA (15 μg) was separated by electrophoresis in 1% agarose/17.6% formaldehyde gels. The RNA was transferred overnight from the denaturing gel onto Hybond-N^+ (Amersham Pharmacia Biotech Inc., Piscataway, N.J.) by capillary action using […] buffer ([…]). The RNA was cross-linked to the filter by ultraviolet irradiation for 20 seconds using a UV Crosslinker (Spectronics Corporation, Westbury, N.Y.) and the blots were hybridized with a solution of 5×SSC, 5× Denhardt's solution, 0.5% SDS, and 10 mg/ml sonicated salmon sperm DNA for 5 hours at 65° C., and 10^7 cpm/ml radio-labeled cDNA generated by random priming with ^32P-dCTP ([…], NEN, Boston, Mass.). Probes specific for the MMP-1 gene were heat denatured and added to the prehybridization buffer for hybridization overnight at 65° C. […]

human ASM cells = experiment: Fura-2 calcium transients in agonist-stimulated ASM cells; format: cell-based; conditions: ajulemic acid 10 μM or 20 μM for 10 minutes, F340/F380 ratio, p<0.01 versus control
Experimental: Human airway smooth muscle (ASM) cells were obtained and passaged as described in Example 1. Subconfluent ASM cells in 96-well plates were washed 3 times in a modified Kreb-Ringer-Henseleit solution (KRH) containing 115 mM NaCl, 5 mM KCl, 1 mM KH2PO4, 1 mM MgSO4, 25 mM N-2-hydroxyethylpiperazine-N′-2-ethanesulfonic acid (HEPES), 15 mM glucose and 2 mM CaCl2. Cells were incubated in 1.0 μM fura 2-AM and pluronic F-127 (0.004%) for 60 minutes at room temperature. See, e.g., Wang et al., Am. J. Phys.; 272:C1151-C1159, 1997. After washing 3 times with KRH, cells were covered with 200 μl KRH and placed on the microscope stage. Reagents were added directly to the wells during calcium recordings. Fura 2-AM and F-127 were from Molecular Probes, Inc. (Eugene, Oreg.). Other chemicals were from Sigma (St. Louis, Mo.).
Fluorescence was induced using computer-controlled 337 and 380 nm UV light generated by a nitrogen laser and a nitrogen laser-pumped dye laser, respectively (Laser Science, Franklin, Mass.). See, e.g., Ethier et al., Cell Calcium, 32:31-38 2002. […]
Background from a cell free region of the cover glass was subtracted prior to data acquisition and then an 11×11 pixels area was selected over each cell. […] Fluorescence emissions stimulated by alternating pulses of ˜340 and 380 nm light were recorded and their ratios plotted. […]

CCCCCCC(C)(C)c1cc(O)c2c(c1)OC(C)(C)[C@@H]1CC=C(C(=O)O)C[C@@H]21 [ajulemic acid, 1′,1′dimethylheptyl-Δ8-THC-11-oic acid]
human ASM cell proliferation [1]: suppressed human ASM cell proliferation in a dose-dependent manner | reduction of TNF-α induced NF-KB activation (binding to oligonucleotide corresponding to an NF-KB binding site) (NF-KB; then 1 ng/ml TNF-α, extracts 45 minutes after stimulation, lane 4 vs. lane 3): approximately 75% | nuclear binding of NF-KB in resting FLS (NF-KB; unstimulated FLS, EMSA, lane 2 vs. lane 1): not altered | expression of the non-phosphorylated form of IK-B (IK-B; 1-30 μM ajulemic acid with 1 ng/ml TNF-α, after 45 minutes): dramatically increased expression of the non-phosphorylated form of IK-B | phosphorylation of IK-B (phosphor-IK-B) (IK-B; 1-30 μM ajulemic acid, 10 minutes after stimulation with 1 ng/ml TNF-α): prevented phosphorylation of IK-B | MMP-1 expression (mRNA, Northern blot) (MMP-1): downregulates MMP-1 expression in a dose-dependent manner | calcium transients, histamine stimulated (human ASM cells; histamine): suppressed calcium transients | calcium transients, thrombin stimulated (human ASM cells; thrombin): suppressed calcium transients
